Measured values: ChEMBL document CHEMBL1141275, “Sesquiterpenoids from Bombax malabaricum” (J Nat Prod, 2007)
Active and inactive are the calls of the source. The calls are words filed in the database; no cut-off is given here.

Assays:
Format in all cases: functional, cell-based
HGC-27 = test: Cytotoxicity against human HGC27 cells by MTT assay
A549 = test: Cytotoxicity against human A549 cells by MTT assay
HeLa = test: Cytotoxicity against human HeLa cells by MTT assay

Row | SMILES | IC50 (HGC-27) [µM] | other results
1 | COC1=C2OC(=O)c3c(O)cc(C(C)C)c(c32)C(=O)C1(C)O (stereo not drawn) [BOMBAMALONE A] | > 10 | 
2 | COC1=C(C)C(=O)c2c(C(C)C)cc(O)c(C(=O)O)c2C1=O | > 10 | 
3 | CC(=O)O[C@H]1C(=O)[C@@]2(C)[C@H]([C@H](OC(=O)c3ccccc3)[C@]3(O)C[C@H](OC(=O)[C@H](O)[C@@H](NC(=O)c4ccccc4)c4ccccc4)C(C)=C1C3(C)C)[C@]1(OC(C)=O)CO[C@@H]1C[C@@H]2O [PACLITAXEL] | 0.778 | IC50 (A549): 0.0126 µM; IC50 (HeLa): 0.0056 µM
4 | CC1=C2OC(C)(C)c3cc4c(c(c32)C(=O)C1=O)C(C)(O)C=CO4 (stereo not drawn) [BOMBAMALONE B] | > 10 | Activity (A549): inactive; Activity (HeLa): inactive
5 | COc1c(C)cc2c(C(C)C)cc(O)c3c2c1OC3=O | > 10 | 
6 | Cc1cc2c(cc1O)[C@@](C)(O)C(=O)C=C2C(C)C [LACINILENE C] | > 10 | 
7 | CC1=C2OC(C)(C)c3cc(O[C@@H]4O[C@H](CO)[C@@H](O)[C@H](O)[C@H]4O)c(C(=O)O)c(c32)C(=O)C1=O [BOMBAMALOSIDE] | > 10 | 
8 | COc1c(O)c(C)cc2c1C(=O)C(=O)C=C2C(C)C [BOMBAMALONE C] | > 10 | 
9 | COc1c(O)c(C)cc2c(C(C)C)cc(O)c(C=O)c12 | > 10 | 
